Assay results published in paper PMC6832524, “A Nature-Inspired Design Yields a New Class of Steroids Against Trypanosomatids” (Molecules, 2019).
Where two headings read alike, the source gives them in different places.

Tests used:
[1] = system: T. cruzi epimastigotes, Tulahuen 2 strain (genotype TcVI); test: in vitro anti-T. cruzi activity, epimastigote growth (absorbance 600 nm); format: cell-based, Trypanosoma cruzi
Protocol: Control parasites were cultivated in 0.4% DMSO. Each concentration of the compound was evaluated in duplicate.

[2] = system: L. amazonensis (promastigotes); test: in vitro anti-Leishmania activity, promastigotes, resazurin; format: cell-based; conditions: maximum dose tested 25 µM, read-out: IC50 ± %SD (µM) L. amazonensis
[3] = system: L. infantum (MHOM/BR/2002/LPC-RPV) promastigotes; test: as above; format: cell-based, Leishmania infantum
[4] = system: L. infantum .uy (parasites isolated from two dogs in the first Leishmaniasis outbreak in Uruguay); test: in vitro activity against L. infantum isolated from dogs in Uruguay; format: cell-based, Leishmania infantum; conditions: for IC50: Leishmania infantum, read-out: IC50 ± %SD (µM) L. infantum .uy
Protocol: Compounds were dissolved in dimethylsulfoxide (DMSO).
For assessing the amastigote form of all Leishmania strains were cultured in the RPMI described above. Parasites were seeded at 1 × 10^6 cells/mL and at each time point counted at least five times to obtain a growth curve. […] Control conditions of parasites without drug (100% growth) and medium without parasites were included. After 72 h at 28 °C parasite viability was determined by the resazurin method described. Infection with L. infantum. THP-1 monocytes (ATCC®TIB-202™) were grown following ATCC recommendations and seeded at 30,000 cells/well onto 18-mm round glass coverslips in 12 wells. For stimulation cells were incubated with 100 nM of PMA for 48 h, PMA was washed and cells left with growth media for 24 h more after incubation with parasites. 30,000 parasites/well were added and left to interact. After 48 h, coverslips were washed with PBS, fixed with 95% (v/v) ethanol, and stained with Fluoroshield™ with DAPI (Sigma). Infectivity was assessed considering invasion and replication capacity counting infected cells and parasites per infected cell, respectively. Infectivity index calculation = (% of infected cells X (amastigotes per cell))/number of total counted cells. Image acquisition was made with a Leica TCS-SP5 laser scanning confocal microscope (Leica Microsystems GmbH, Wetzlar, Germany) using the LASAF v.2 software (Leica Microsystems, Wetzlar, Germany) and observed using a 356 nm laser excitation line and an emission bandwidth from 461 nm under a 20× water immersion objective. Further image analysis, including quantitation and processing of figures were made using Fiji (http://fiji.sc/).

[5] = system: promastigotes L. braziliensis/ L. amazonensis; test: in vitro anti-Leishmania activity, promastigotes (Table 1S); format: cell-based; conditions: read-out: IC50 ± %SD (µM) promastigotes L. braziliensis/ L. amazonensis
[6] = system: J774.1 murine macrophages; test: nonspecific cytotoxicity on mammalian cells, MTT; format: cell-based; conditions: for IC50: Mus musculus, J774.1, 48 h, MTT, read-out: IC50 ± SD (µM) Murine Macrophages; for SI J774.1/T. cruzi: ratio IC50 murine macrophages / IC50 T. cruzi epimastigotes
[7] = Trypanosoma cruzi, TULAHUEN, epimastigotes, maximum dose tested 25 µM, read-out: IC50 ± %SD (µM) T. cruzi
[8] = Leishmania infantum, promastigotes, maximum dose tested 25 µM, read-out: IC50 ± %SD (µM) L. infantum
[9] = parasites isolated from two dogs in Uruguay, maximum dose tested 25 µM

| Compound | IC50 [1, 7] [µM] | IC50 [2] [µM] | IC50 [3, 8] [µM] | IC50 [4] [µM] | IC50 [5] [µM] | melting point [°C] | further results |
| --- | --- | --- | --- | --- | --- | --- | --- |
| C[C@]12CC[C@H]3[C@@H](CC=C4CC(O)CC[C@@]43C)[C@@H]1CC[C@@H]2C(=O)/C=C/C=C/c1ccco1 (stereo partly drawn) [Compound 7, (2E,4E)-5-(furan-2-yl)-1-((8S,9S,10R,13S,14S,17S)-3-hydroxy-10,13-dimethyl-2,3,4,7,8,9,10,11,12,13,14,15,16,17-tetradecahydro-1H-cyclopenta[a]phenanthren-17-yl)penta-2,4-dien-1-one] | > 25 | > 25 | > 25 | > 25 | > 25 | 100 to 103 | – |
| CC(=O)[C@H]1CC[C@H]2[C@@H]3CC=C4C[C@@H](O)CC[C@]4(C)[C@H]3CC[C@]12C [Pregnenolone, 3β-hydroxyl-5-pregnen-20-one, reference compound] | > 25 | > 25 | > 25 | – | – | – | IC50 [4, 9]: > 25 µM |
| C=CCn1c(C(=O)N2CCN(CC=Cc3ccccc3)CC2)cs/c1=N/N=C(/C)[C@@H]1CC[C@H]2[C@@H]3CC=C4CC(O)CC[C@]4(C)[C@H]3CC[C@]12C (stereo partly drawn) [Compound 12, ((Z)-3-allyl-2-((E)-(1-((8S,9S,10R,13S,14S,17R)-3-hydroxy-10,13-dimethyl-2,3,4,7,8,9,10,11,12,13,14,15,16,17-tetradecahydro-1H-cyclopenta[a]phenanthren-17-yl)ethylidene)hydrazono)-2,3-dihydrothiazol-4-yl)(4-cinnamylpiperazin-1-yl)methanone] | > 25 | – | > 25 | > 25 | > 25 | – | – |
| CCCCCCCCCCCCCCCCOP(=O)([O-])OCC[N+](C)(C)C [Miltefosine, reference compound] | 8 ± 2 | – | 0.9 ± 0.2 | – | – | – | IC50 [4, 9]: 5 ± 2 µM; IC50 [6]: 50 ± 7 µM; SI J774.1/L. infantum ([6]; ratio IC50 murine macrophages / IC50 L. infantum promastigotes): 56; SI J774.1/T. cruzi [6]: 6 |
| C=CCn1c(-c2ccc(Cl)cc2)csc1=NN=C(C)[C@H]1CC[C@H]2[C@@H]3CC=C4C[C@@H](O)CC[C@]4(C)[C@H]3CC[C@]12C [Compound 20, 1-(3β-Hydroxy-pregn-5-ene-20E-ylidene)-2-(3-allyl-4-(4-chloro-pheny)thiazol-2(3H)-ylidene)azine] | – | – | – | – | > 25 | – | IC50 ([1]; Table 1S, read-out: IC50 ± %SD (µM) epimastigotes T. cruzi): > 25 µM; IC50 ([3]; Table 1S, read-out: IC50 ± %SD (µM) promastigotes L. infantum): > 25 µM |
| CC1CS(=O)(=O)CCN1/N=C/c1ccc([N+](=O)[O-])o1 (centres unmarked) [Nifurtimox, reference compound] | 7 ± 2 | – | 6 ± 2 | – | – | – | IC50 [4, 9]: 10 ± 2 µM |
| C=CCn1c(-c2ccc(Br)cc2)csc1=NN=C(C)C1CCC2C3CC=C4CC(O)CCC4(C)C3CCC12C (stereo not drawn) [Compound 11, 1-(3β-Hydroxy-pregn-5-ene-20E-ylidene)-2-(3-allyl-4-(4-bromo-pheny)thiazol-2(3H)-ylidene)azine] | > 25 | 16 ± 3 | > 25 | > 25 | 16 ± 3 | 179 to 183 | – |
| C/C(=N/N=c1\[nH]c(C(=O)O)cs1)[C@@H]1CC[C@H]2[C@@H]3CC=C4CC(O)CC[C@]4(C)[C@H]3CC[C@]12C (stereo partly drawn) [Compound 18, (Z)-2-((E)-(1-((8S,9S,10R,13S,14S,17R)-3-hydroxy-10,13-dimethyl-2,3,4,7,8,9,10,11,12,13,14,15,16,17-tetradecahydro-1H-cyclopenta[a]phenanthren-17-yl)ethylidene)hydrazono)-2,3-dihydrothiazole-4-carboxylic acid] | – | – | – | – | – | 281 to 283 | – |
| C[C@]12CC[C@H]3[C@@H](CC=C4CC(O)CC[C@@]43C)[C@@H]1CC[C@@H]2C(=O)/C=C/c1cccnc1Br (some centres unmarked) [Compound 1] | > 25 | > 25 | > 25 | > 25 | > 25 | 193 to 195 | – |
| C[C@]12CC[C@H]3[C@@H](CC=C4CC(O)CC[C@@]43C)[C@@H]1CC[C@@H]2C(=O)/C=C/c1cccc(Br)c1 (some centres unmarked) [Compound 4] | 20 ± 5 | > 25 | > 25 | > 25 | > 25 | 159 to 161 | activity against Leishmania infantum from Fiocruz collection, in words [3]: active; active against the strains isolated from Uruguayan dogs, in words [4]: not |
| C/C(=N\Nc1nc(C(=O)N2CCN(C/C=C\c3ccccc3)CC2)cs1)[C@@H]1CC[C@H]2[C@@H]3CC=C4CC(O)CC[C@]4(C)[C@H]3CC[C@]12C (stereo partly drawn) [Compound 13, (2-((E)-2-(1-((8S,9S,10R,13S,14S,17R)-3-hydroxy-10,13-dimethyl-2,3,4,7,8,9,10,11,12,13,14,15,16,17-tetradecahydro-1H-cyclopenta[a]phenanthren-17-yl)ethylidene)hydrazinyl)thiazol-4-yl)(4-((Z)-3-phenylallyl)piperazin-1-yl)methanone] | > 25 | – | > 25 | > 25 | > 25 | – | – |
| C=CCn1c(C(=O)NCC(=O)OCC)cs/c1=N/N=C(/C)[C@@H]1CC[C@H]2[C@@H]3CC=C4CC(O)CC[C@]4(C)[C@H]3CC[C@]12C (stereo partly drawn) [Compound 14, Ethyl-2-((Z)-3-allyl-2-((E)-(1-((8S,9S,10R,13S,14S,17R)-3-hydroxy-10,13-dimethyl-2,3,4,7,8,9,10,11,12,13,14,15,16,17-tetradecahydro-1H-cyclopenta[a]phenanthren-17-yl)ethylidene)hydrazono)-2,3-dihydrothiazole-4-carboxamido)acetate] | 8 ± 2 | – | > 25 | > 25 | > 25 | – | activity against Leishmania infantum from Fiocruz collection, in words [3]: active; active against the strains isolated from Uruguayan dogs, in words [4]: not; IC50 [6]: 100 ± 8 µM; SI J774.1/T. cruzi [6]: 13 |
| C[C@]12CC[C@H]3[C@@H](CC=C4CC(O)CC[C@@]43C)[C@@H]1CC[C@@H]2C(=O)/C=C/C=C/c1ccccc1 (stereo partly drawn) [Compound 6, (2E,4E)-1-((8S,9S,10R,13S,14S,17S)-3-hydroxy-10,13-dimethyl-2,3,4,7,8,9,10,11,12,13,14,15,16,17-tetradecahydro-1H-cyclopenta[a]phenanthren-17-yl)-5-phenylpenta-2,4-dien-1-one] | > 25 | > 25 | > 25 | > 25 | > 25 | 116 to 119 | – |
| C=CCn1c(C(=O)O)cs/c1=N/N=C(/C)[C@@H]1CC[C@H]2[C@@H]3CC=C4CC(O)CC[C@]4(C)[C@H]3CC[C@]12C (stereo partly drawn) [Compound 19, (Z)-3-allyl-2-((E)-(1-((8S,9S,10R,13S,14S,17R)-3-hydroxy-10,13-dimethyl-2,3,4,7,8,9,10,11,12,13,14,15,16,17-tetradecahydro-1H-cyclopenta[a]phenanthren-17-yl)ethylidene)hydrazono)-2,3-dihydrothiazole-4-carboxylic acid] | – | – | – | – | – | 145 to 149 | – |
| C[C@]12CC[C@H]3[C@@H](CC=C4CC(O)CC[C@@]43C)[C@@H]1CC[C@@H]2C(=O)/C=C/c1ccc(Cl)cc1 (stereo partly drawn) [Compound 3, (2E)-3-(4-Chlorophenyl)-1-((10R,13S)-2,3,4,7,8,9,10,11,12,13,14,15,16,17-tetradecahydro-3(β)-hydroxy-10,13-dimethyl-1H-cyclo-penta[a]phenanthren-17(β)-yl)prop-2-en-1-one] | > 25 | > 25 | > 25 | > 25 | > 25 | 159 to 161 | – |
| C[C@]12CC[C@H]3[C@@H](CC=C4CC(O)CC[C@@]43C)[C@@H]1CC[C@@H]2C(=O)/C=C/c1ccccc1 (stereo partly drawn) [Compound 5, (2E)-1-((10R,13S)-2,3,4,7,8,9,10,11,12,13,14,15,16,17-tetradecahydro-3(β)-hydroxy-10,13-dimethyl-1H-cyclopenta[a]phenan-thren-17(β)-yl)-3-phenylprop-2-en-1-one] | > 25 | > 25 | > 25 | > 25 | > 25 | – | – |
